Experimental findings from PMC10786919, “Design-rules for stapled peptides with in vivo activity and their application to Mdm2/X antagonists” (Nature Communications, 2024) are described below.

Each structure is given as a SMILES string. Values after ≈ are worked out from the molar mass of the structure shown. Where two headings read alike, the source gives them in different places. Positions of bridges follow the written chain, without caps; N, C: chain ends. Non-standard residues stand in square brackets, D forms with d. Residues, ends and D or L forms follow the SMILES beside them. Trp(6-Cl) = N[C@@H](Cc1c[nH]c2cc(Cl)ccc12)C(=O)O; Lys(N3) = [N-]=[N+]=NCCCC[C@H](N)C(=O)O; R8 = C=CCCCCCC[C@@](C)(N)C(=O)O; Cba = N[C@@H](CC1CCC1)C(=O)O; S5 = C=CCCC[C@](C)(N)C(=O)O; βAla = NCCC(=O)O A value given as a limit tells only on which side of the number the result lay.

One data set is described as follows: in vitro. The method in brief:
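Azido-peptide permeability was read as loss of NanoBRET signal (donor 450 nm, acceptor 610 nm) after adding NanoBret618-azide at 10 μM final.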

Data set [1] in a line: Experimental LogD (partition coefficient). The settings on record: for logD: not stated, Partition Coeff LogD.
Data set [2] can be described thus: Solubility assay (kinetic solubility, PBS pH 7). The class given is physicochemical. The settings on record: pH 7, PBS; for solubility kinetic: pH 7, aqueous buffer, kinetic from dmso stock, read-out: Solubility. The procedure, abridged:
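Values derive from peak-area ratios of sample versus a 100 µM standard, scaled by that standard's concentration.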

Data set [3] in a line: Lactate dehydrogenase (LDH) release assay. The class given is cell-based. The procedure, abridged: (§1)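 A p53 β-lactamase reporter HCT116 line, 8000 cells per well, is exposed to test compounds at 0.5% final DMSO and scored for LDH leakage.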
In another data set the test system is HCT116 cells. The data set is described as follows: Lactate dehydrogenase (LDH) release assay. It is filed as cell-based. The method in brief: as §1
Where [4] appears, read: Nanoclick permeability assay EC50.
Where [5] appears, read: 0% FBS 4Hr, read-out: LDH: Cytotoxicity assay: EC50.
[6] abbreviates: 4 hours, 0% serum, read-out: LDH Cytotoxicity assay EC50.

By EC50 is commonly meant the concentration that produces a half-maximal response. `CC(=O)N[C@@H](CCCCN=[N+]=[N-])C(=O)NCCC(=O)N[C@@H](CC(C)C)C(=O)N[C@H](C(=O)N[C@@H](Cc1ccccc1)C(=O)N[C@]1(C)CCCCCCC=CCCC[C@@](C)(C(=O)N[C@@H](CO)C(=O)N[C@@H](C)C(=O)N[C@@H](C)C(N)=O)NC(=O)[C@H](CC2CCC2)NC(=O)[C@H](CCC(N)=O)NC(=O)[C@H](C)NC(=O)[C@H](Cc2c[nH]c3ccccc23)NC(=O)[C@H](CCC(=O)O)NC(=O)[C@H](C)NC1=O)[C@@H](C)O` [MP-029] (Ac-[Lys(N3)][βAla]LTF[R8]AEWAQ[Cba][S5]SAA-NH2; staple 6-13): in the data set “in vitro” (setting [4]), the cell entry EC50 stood at 0.0699 µM. In addition, the “Partition Coeff LogD” value in data set [1] was “Poorly Behaved”. The Solubility result in data set [2] is “Poorly Behaved”. In addition, the EPSA in “physchem” was found to be 182 A^2. The same molecule had an EC50 in data set [3] (LDH: Cytotoxicity assay: EC50) of over 50.7 µM.
As usually defined, the logD is lipophilicity at a set pH, counting ionised and neutral species. Consider `CC(=O)N[C@@H](CCCCN=[N+]=[N-])C(=O)NCCC(=O)N[C@@H](CC(C)C)C(=O)N[C@H](C(=O)N[C@@H](Cc1ccccc1)C(=O)N[C@]1(C)CCCCCCC=CCCC[C@@](C)(C(=O)N[C@@H](CO)C(=O)N[C@@H](C)C(=O)N[C@@H](C)C(N)=O)NC(=O)[C@H](CC2CCC2)NC(=O)[C@H](CCC(N)=O)NC(=O)[C@H](C)NC(=O)[C@H](Cc2c[nH]c3ccccc23)NC(=O)[C@H](Cc2ccc(O)cc2)NC(=O)[C@@H](C)NC1=O)[C@@H](C)O` [MP-473] (Ac-[Lys(N3)][βAla]LTF[R8][dA]YWAQ[Cba][S5]SAA-NH2; staple 6-13), for which the cell entry EC50 in “in vitro” (setting [4]) came to 0.197 µM. In data set [1], this molecule gave a logD of 3.49. The Solubility result in data set [2] is “Poorly Behaved”. Besides, in “physchem”, the EPSA stood at 213 A^2. The EC50 in data set [3] (LDH: Cytotoxicity assay: EC50) was over 50 µM.
Turning to `CC(=O)N[C@@H](CCCCN=[N+]=[N-])C(=O)NCCC(=O)N[C@H](C)C(=O)N[C@H](C(=O)N[C@@H](Cc1ccccc1)C(=O)N[C@]1(C)CCCCCCC=CCCC[C@@](C)(C(=O)N[C@@H](CO)C(=O)N[C@@H](C)C(=O)N[C@@H](C)C(N)=O)NC(=O)[C@H](CC2CCC2)NC(=O)[C@H](CCC(N)=O)NC(=O)[C@H](C)NC(=O)[C@H](Cc2c[nH]c3ccccc23)NC(=O)[C@H](Cc2ccc(O)cc2)NC(=O)[C@H](CCC(=O)O)NC1=O)[C@@H](C)O` [MP-7470], in “in vitro” (setting [4]), the cell entry EC50 is over 10 µM. Moreover, the logD in data set [1] came to 2.72. The solubility kinetic in data set [2] amounted to 90 µM (≈ 174 µg/mL). Further, the EPSA in “physchem” was 228 A^2. In data set [3] (LDH: Cytotoxicity assay: EC50), the EC50 is over 50 µM.
For `CC(=O)N[C@@H](CCCCN=[N+]=[N-])C(=O)NCCC(=O)N[C@@H](CC(C)C)C(=O)N[C@H](C(=O)N[C@@H](C)C(=O)N[C@]1(C)CCCCCCC=CCCC[C@@](C)(C(=O)N[C@@H](CO)C(=O)N[C@@H](C)C(=O)N[C@@H](C)C(N)=O)NC(=O)[C@H](CC2CCC2)NC(=O)[C@H](CCC(N)=O)NC(=O)[C@H](C)NC(=O)[C@H](Cc2c[nH]c3ccccc23)NC(=O)[C@H](Cc2ccc(O)cc2)NC(=O)[C@H](CCC(=O)O)NC1=O)[C@@H](C)O` [MP-892, AZIDE-ATSP-7041 (F3A)], the cell entry EC50 in the data set “in vitro” was 0.465 µM. In data set [1], this molecule showed a logD of 2.54. The solubility kinetic in data set [2] turned out to be 101 µM (≈ 191 µg/mL). In the data set “physchem”, this molecule gave an EPSA of 201 A^2. The EC50 in data set [3] (setting [5]) is over 50.6 µM; in data set [3] (setting [6]) it was over 50 µM.
Turning to `CC(=O)N[C@@H](CCCCN=[N+]=[N-])C(=O)NCCC(=O)N[C@H](CC(C)C)C(=O)N[C@H](C(=O)N[C@@H](Cc1ccccc1)C(=O)N[C@]1(C)CCCCCCC=CCCC[C@@](C)(C(=O)N[C@@H](CO)C(=O)N[C@H](C)C(=O)N[C@@H](C)C(N)=O)NC(=O)[C@H](CC2CCC2)NC(=O)[C@H](C)NC(=O)[C@H](C)NC(=O)[C@H](Cc2c[nH]c3cc(Cl)ccc23)NC(=O)[C@H](Cc2ccc(O)cc2)NC(=O)[C@H](C)NC1=O)[C@@H](C)O` [MP-493] (Ac-[Lys(N3)][βAla][dL]TF[R8]AY[Trp(6-Cl)]AA[Cba][S5]S[dA]A-NH2; staple 6-13), the cell entry EC50 in “in vitro” (setting [4]) was found to be 0.0845 µM. This molecule displayed a logD in data set [1] of 3.93. In addition, the solubility kinetic in data set [2] was under 1 µM. Moreover, in “physchem”, the EPSA amounted to 187 A^2. The EC50 in data set [3] (LDH: Cytotoxicity assay: EC50) is over 50.6 µM.
Take `CC(=O)N[C@@H](CCCCN=[N+]=[N-])C(=O)NCCC(=O)N[C@@H](CC(C)C)C(=O)N[C@H](C(=O)N[C@@H](Cc1ccccc1)C(=O)N[C@]1(C)CCCCCCC=CCCC[C@@](C)(C(=O)N[C@@H](CO)C(=O)N[C@@H](C)C(=O)N[C@@H](C)C(N)=O)NC(=O)[C@H](CC2CCC2)NC(=O)[C@H](CCC(N)=O)NC(=O)[C@H](C)NC(=O)[C@H](C)NC(=O)[C@H](Cc2ccc(O)cc2)NC(=O)[C@H](CCC(=O)O)NC1=O)[C@@H](C)O` [MP-893, AZIDE-ATSP-7041(W7A)]: the cell entry EC50 in the data set “in vitro” is 1.23 µM. The log distribution coefficient (logD) in data set [1] is 2.88. In addition, the solubility kinetic in data set [2] came to 51 µM (≈ 94.6 µg/mL). Further, in “physchem”, the EPSA was determined as 192 A^2. Also, the EC50 in data set [3] (setting [5]) and in data set [3] (setting [6]) was 15 µM in each case.
As for `CC(C)C[C@H](NC(=O)CCNC(=O)[C@@H](N)CCCCN=[N+]=[N-])C(=O)N[C@H](C(=O)N[C@@H](Cc1ccccc1)C(=O)N[C@]1(C)CCCCCCC=CCCC[C@@](C)(C(N)=O)NC(=O)[C@H](CC2CCC2)NC(=O)[C@H](CCC(N)=O)NC(=O)[C@H](C)NC(=O)[C@H](Cc2c[nH]c3ccccc23)NC(=O)[C@H](Cc2ccc(O)cc2)NC(=O)[C@H](CCC(=O)O)NC1=O)[C@@H](C)O` [MP-327] (H-[Lys(N3)][βAla]LTF[R8]EYWAQ[Cba][S5]-NH2; staple 6-13), the cell entry EC50 in “in vitro” (setting [4]) was over 10 µM. The same molecule yielded a logD in data set [1] of 2.83. In addition, the EPSA in the data set “physchem” is 228 A^2. In data set [3] (LDH: Cytotoxicity assay: EC50), the EC50 is over 50.6 µM. Besides, the “LDH: Cytotoxicity assay: % Effect” value in the data set with HCT116 cells is on record as 39.84%.
In the case of `CC(=O)N[C@@H](CCCCN=[N+]=[N-])C(=O)NCCC(=O)N[C@@H](CC(C)C)C(=O)N[C@H](C(=O)N[C@@H](Cc1ccccc1)C(=O)N[C@]1(C)CCCCCCC=CCCC[C@@](C)(C(=O)N[C@@H](CO)C(=O)N[C@@H](C)C(=O)N[C@@H](C)C(N)=O)NC(=O)[C@H](CC2CCC2)NC(=O)[C@@H]2CCCN2C(=O)[C@H](C)NC(=O)[C@H](Cc2c[nH]c3ccccc23)NC(=O)[C@H](Cc2ccc(O)cc2)NC(=O)[C@H](CCC(=O)O)NC1=O)[C@@H](C)O` [MP-260] (Ac-[Lys(N3)][βAla]LTF[R8]EYWAP[Cba][S5]SAA-NH2; staple 6-13), the cell entry EC50 in “in vitro” (setting [4]) worked out at 0.246 µM. Besides, in data set [1], the “Partition Coeff LogD” value is listed as “Poorly Behaved”. Besides, the Solubility entry in data set [2] is recorded as “Poorly Behaved”. The molecule also returned an EPSA in the data set “physchem” of 197 A^2. The molecule also had an EC50 in data set [3] (LDH: Cytotoxicity assay: EC50) of over 50.6 µM.
